Data: patent US20120195959A1, “METHOD FOR TREATING DISEASE OR DISORDER OF ADULT CENTRAL NERVOUS SYSTEM ASSOCIATED WITH TISSUE SHRINKAGE OR ATROPHY BY ADMINISTRATION OF INSULIN” (priority 2005, published 2012)
“Also recorded” adds a separate entry of the source.

Assays:
[1] = system: diabetic rats; assay: Brain atrophy in streptozotocin-diabetic rats, insulin infused into brain lateral ventricles; format: in vivo, rat; conditions: 0.3 U insulin per kg body weight per day into brain lateral ventricles for 10 weeks; D+Insulin vs D+aCSF P<0.02; N=7 rats per group
Protocol: (§1) Adult rats were randomly assigned to treatment groups, some of which were treated with streptozotocin to induce diabetes. Alzet osmotic minipumps (pump rate, 0.5 μl per hour) were connected to catheters that delivered either artificial cerebrospinal fluid (D+aCSF) or 0.3 U insulin per kg body weight per day (D+Insulin) into the brain lateral ventricles of diabetic rats for 10 weeks. Pumps were replaced every two weeks. Brains were removed and the wet weight determined. The brains were homogenized in a buffer, and aliquots were taken to determine dry weight. The water weight was calculated as the difference between brain wet and dry weights. The results are shown in FIGS. 1A-1C, wherein the values are means±SEM (N=7 rats per group). Newman-Keuls posthoc test of means was calculated using CSS Statistica software package.

[2] = system: diabetic rats; assay: Serum glucose and body weight in the same experiment at 10 weeks; format: in vivo, rat; conditions: 0.3 U insulin per kg per day intracerebroventricular
Protocol: as §1
In the same experiment described in FIGS. 1A-1C, rats were weighed and tail blood was withdrawn for glucose assay prior to euthanasia at 10 weeks. Values are means±SEM. Newman-Keuls posthoc test of means was calculated using CSS Statistica software package.

[3] = system: patients; conditions: insulin infusion, glucose levels kept constant in patients; cited from earlier work

insulin
brain atrophy, loss of brain wet and dry weights [1]: prevented brain atrophy; also recorded: completely normalized brain weight | loss of body weight ([2]; D+Insulin vs D+aCSF P<0.02): partially prevented loss of body weights | hyperglycemia (serum glucose levels) ([2]; D+Insulin vs D+aCSF nonsignificant): no effect on hyperglycemia | number of different genes whose expression is regulated in a muscle biopsy [3]: over 700
